From ChEMBL document CHEMBL5625228, “Design, synthesis, and bioactivity evaluation of novel amide/sulfonamide derivatives as potential anti-inflammatory agents against acute lung injury and ulcerative colitis” (Eur J Med Chem, 2023)
The source made the active and inactive calls. The rule behind the calls is not given here.

Assays:
[1] = Apparent volume of distribution in Sprague-Dawley rat at 10 mg/kg, po measured upto 24 hrs by LC-MS analysis; format: ADME, organism-based; details: in vivo
Mus musculus [2] = experiment: Antiinflammatory activity against LPS-induced acute lung injury C57BL/6 mouse model assessed as alveolar septa thickness in lung at 20 mg/kg, IG preincubated with compound for 30 mins followed by LPS-induction and measured after 6 hrs by H and E staining based analysis; format: functional, organism-based; details: time 390.0 min
Mus musculus [3] = experiment: Antiinflammatory activity against DSS-induced acute colitis C57BL/6 mouse model assessed as reduction in mucosal damage in colon at 5 mg/kg, po pretreated with DSS for 7 days followed by compound addition for every day for 10 days by H and E staining based analysis; format: functional, organism-based; details: time 10.0 day
Mus musculus [4] = experiment: Antiinflammatory activity against LPS-induced acute lung injury C57BL/6 mouse model assessed as suppression of IL-6 level in BALF at 20 mg/kg, IG preincubated with compound for 30 mins followed by LPS-induction and measured after 6 hrs by ELISA analysis; format: functional, organism-based; details: time 390.0 min
[5] = AUC (0 to t) in Sprague-Dawley rat at 10 mg/kg, po measured upto 24 hrs by LC-MS analysis; format: ADME, organism-based; details: in vivo
[6] = Cmax in Sprague-Dawley rat at 1 mg/kg, iv measured upto 24 hrs by LC-MS analysis; format: ADME, organism-based; details: in vivo
Mus musculus [7] = experiment: Antiinflammatory activity against LPS-induced acute lung injury C57BL/6 mouse model assessed as suppression of TNF-alpha level in BALF at 20 mg/kg, IG preincubated with compound for 30 mins followed by LPS-induction and measured after 6 hrs by ELISA analysis; format: functional, organism-based; details: time 390.0 min
Mus musculus [8] = experiment: Antiinflammatory activity against DSS-induced acute colitis C57BL/6 mouse model assessed as reduction in splenomegaly at 5 mg/kg, po pretreated with DSS for 7 days followed by compound addition for every day for 10 days; format: functional, organism-based; details: time 10.0 day
Mus musculus [9] = experiment: Antiinflammatory activity against LPS-induced acute lung injury C57BL/6 mouse model assessed as inflammatory infiltration in lung at 20 mg/kg, IG preincubated with compound for 30 mins followed by LPS-induction and measured after 6 hrs by H and E staining based analysis; format: functional, organism-based; details: time 390.0 min
Mus musculus [10] = experiment: Antiinflammatory activity against DSS-induced acute colitis C57BL/6 mouse model assessed as attenuation of white pulp at 5 mg/kg, po pretreated with DSS for 7 days followed by compound addition for every day for 10 days by H and E staining based analysis; format: functional, organism-based; details: time 10.0 day

Vz [1]: 80 L/kg
AUC(0-t) at 24 h [5]: 1.06 µg·h/mL
Cmax [6]: 1.32 µg/mL
Structure (SMILES): O=[N+]([O-])c1ccc(N2CCN(c3ccc(S(=O)(=O)NCc4ccccn4)cc3[N+](=O)[O-])CC2)cc1
Activity (Mus musculus [2]): Active
Activity (Mus musculus [3]): Active
Activity (Mus musculus [4]): Active
Activity (Mus musculus [7]): Active
Activity (Mus musculus [8]): Active
Activity (Mus musculus [9]): Active
Activity (Mus musculus [10]): Active
